For the assay, the system named is ZIKV MR766. Nature of the assay: Elimination of ZIKV from infected hNPCs (drug applied 2 h post infection, 3 days drug, 3 days drug-free). The following applies: for ZIKV infection of hNPCs at day 6: 3 days treatment followed by 3 days culture without drug; for ZIKV infection rate of hNPCs at day 3: day 3 of treatment. The format is cell-based, Zika virus. How it is done: (A) Scheme to evaluate the elimination of ZIKV. At day 0, hNPCs were infected with ZIKV for 2 h. After removal of ZIKV infection medium, hNPCs were treated with drug candidates. At day 3, the culture medium was changed to fresh medium without compounds. The cells were maintained in drug-free culture until day 6 and used for immunohistochemistry and qRT-PCR. (B and C) Inhibitory curve and IC50 of HH calculated based on the infection rate (B) and normalized cell viability (C) (n=6). (D and E) Immunocytochemistry analysis (D) and the quantification of infection rate, cell apoptosis rate, and total cell number (E) of hNPCs on day 3 and day 6. Cells was fixed and stained with cleaved Caspase-3 (CAS3), ZIKV E and DAPI. Scale bars, 100 μm. (F) qRT-PCR analysis to monitor the total ZIKV vRNA in the supernatant of hNPC cultures on day 6. Scale bars, 200 μm. (n=3). (G) Vero cell reinfection assay to monitor the infective ZIKV vRNA in the supernatant of hNPC cultures at day 6 after ZIKV infection. Scale bars, 200 μm. (n=3). (H) Quantification of ZIKV infectious particles produced by ZIKV-infected hNPCs at day 6 by the Vero cell reinfection assay. (I) hNPCs with or without ZIKV infection treated with HH maintain hNPC marker expression and differentiation capacity. hNPCs with or without ZIKV MR766 infection were treated with 25 μM HH or DMSO for 3 days and then stained for SOX2, NESTIN and with DAPI. hNPCs with or without ZIKV infection and treated with HH or DMSO for 3 days were differentiated to cortical neurons. The cortical neurons were then fixed and stained for MAP2, TUJ1 and with DAPI. Scale bars, 100 μm. (n=3). (J) ZIKV (MR766 strain) dynamics in hNPCs. qRT-PCR analysis to quantify the total and replicating (−) strand vRNAs in the hNPCs at different time points post infection. […] (K) qRT-PCR analysis of hNPCs, on which 25 μM HH or DMSO were added at 24 h, 36 h and 48 h post-ZIKV (MR766 strain) infection and maintained for additional 3 days. p values were calculated by unpaired two-tailed Student's t-test. *p<0.05, **p<0.01 and ***p<0.001, if not mentioned specifically.
HH eliminates virus from ZIKV infected hNPCs. To determine whether the drug candidates are capable of eliminating ZIKV in previously infected hNPCs, HH or AQ was applied 2 h post ZIKV infection (FIG. 2A).
ZIKV-infected hNPCs were treated with HH or AQ for 3 days, followed by 3 days culture in drug-free medium. Immunocytochemical analysis of ZIKV E, cleaved-caspase-3 (CAS3) and DAPI were performed at day 0 (just before ZIKV infection), day 3, and day 6 to measure the ZIKV infection rate, cell death rate and total cell numbers, respectively. […] In addition, neither ZIKV vRNA, as indicated by qRT-PCR (FIG. 2F), or production of infectious ZIKV, as indicated by a Vero cell re-infection assay, was detected in day 6 supernatant of HH-treated conditions (FIGS. 2G and 2H). […] In contrast, hNPCs without HH treatment underwent significant cell death after 3 days of ZIKV infection, and there were no cells detected after cortical neuron differentiation (data not shown).
Generation of inhibitory curves. hNPCs were plated on 96-well plates with Accutase digestion at 8.5×10^4/cm^2 density and incubated overnight. For generating inhibitory curves of compound for inhibiting ZIKV infection, cells were first treated with DMSO or different doses of hit compounds for 1 h before ZIKV infection. The cells were then infected with ZIKV MR766 at a MOI=0.125. After 2 h of infection, the virus-containing medium was replaced by fresh virus-free medium and compounds were added again to the same wells. For generating inhibitory curves of compound for eliminating ZIKV, compounds were instead added after ZIKV infection. After 3 days incubation, the cells were fixed and stained for ZIKV envelope protein (ZIKV E) and DAPI was used to stain cell nuclei. Plates were analyzed with the ImageXpress^MICRO Automated High-Content Analysis System. IC50 was calculated using MasterPlex Reader Fit 2010.

Where [1] appears, read: compound applied 2 h post ZIKV infection.

Where a name gives a salt, the structure may show the parent alone.

The values that follow come from patent publication US11466020B2, “Compounds and compositions for inhibition and elimination of Zika infection and uses for same” (Cornell University, priority 2017, dated 2022).

As to `CN1CCC2=C[C@H](O)[C@H]3OC(=O)c4cc5c(cc4[C@H]3[C@@H]21)OCO5` [HH, hippeastrine hydrobromide], the “ZIKV infection of hNPCs at day 6” value is reported as “remained undetectable” and the “ZIKV infection rate of hNPCs at day 3” value is listed as “undetectable levels”. Besides, under setting [1], the “IC50 for eliminating versus inhibiting ZIKV” value is “comparable IC50 values” and the “elimination of ZIKV infection in previously infected hNPCs” value was “capable of eliminating ZIKV infection”.

Consider `CCN(CC)Cc1cc(Nc2ccnc3cc(Cl)ccc23)ccc1O` [AQ, amodiaquine dihydrochloride dihydrate], for which the “ZIKV infection of hNPCs at day 6” value is “comparable to the level of infection in the DMSO control condition” and the “ZIKV infection rate of hNPCs at day 3” value was “undetectable levels”. Further, the “elimination of ZIKV infection in previously infected hNPCs” value under setting [1] is given as “capable of eliminating ZIKV infection”.
